{"source": "patent US4419447A", "about": "“Fermentation process for producing demycinosyltylosin” (Eli Lilly and Company, priority 1981, dated 1983)", "key": {"physchem": {"assay": "physchem", "format": "physicochemical", "conditions": "66% aqueous dimethylformamide"}, "[1]": {"format": "physicochemical", "text": "DMT base is soluble in water and in most polar organic solvents, such as acetone, methanol, ethanol, chloroform, dimethylformamide and dimethyl sulfoxide. DMT acid addition salts are more soluble in water than is DMT base."}, "[2]": {"system": "gram-positive microorganisms and Mycoplasma species", "assay": "Inhibition of growth of pathogenic bacteria (general statement)", "format": "cell-based", "text": "(§1) Table 8 summarizes the minimal inhibitory concentrations (MIC), as measured by standard agar-dilution assays, at which DMT (free base) inhibits certain bacteria."}, "Mycoplasma gallisepticum [3]": {"system": "Mycoplasma gallisepticum", "assay": "In vitro activity, standard agar-dilution assay", "format": "cell-based", "conditions": "Mycoplasmoides gallisepticum", "text": "as §1"}, "Mycoplasma hyopneumoniae": {"system": "Mycoplasma hyopneumoniae", "assay": "In vitro activity, standard agar-dilution assay", "format": "cell-based", "conditions": "Mesomycoplasma hyopneumoniae", "text": "as §1"}, "Mycoplasma hyorhinis": {"system": "Mycoplasma hyorhinis", "assay": "In vitro activity, standard agar-dilution assay", "format": "cell-based", "text": "as §1"}, "Pasteurella hemolytica": {"system": "Pasteurella hemolytica", "assay": "In vitro activity, standard agar-dilution assay", "format": "cell-based", "text": "as §1"}, "Pasteurella multocida": {"system": "Pasteurella multocida", "assay": "In vitro activity, standard agar-dilution assay", "format": "cell-based", "text": "as §1"}, "[4]": {"system": "Staphylococcus aureus 209P", "assay": "In vitro activity, standard agar-dilution assay", "format": "cell-based", "text": "as §1"}, "[5]": {"system": "Staphylococcus aureus 3055", "assay": "In vitro activity, standard agar-dilution assay", "format": "cell-based", "text": "as §1"}, "[6]": {"system": "Streptococcus pneumoniae Park I", "assay": "In vitro activity, standard agar-dilution assay", "format": "cell-based", "text": "as §1"}, "[7]": {"system": "Streptococcus pyogenes C203", "assay": "In vitro activity, standard agar-dilution assay", "format": "cell-based", "text": "as §1"}, "[8]": {"system": "Streptococcus sp. (Group D) 282", "assay": "In vitro activity, standard agar-dilution assay", "format": "cell-based", "text": "as §1"}, "[9]": {"system": "Streptococcus pyogenes C203", "assay": "Experimental infection in mice", "format": "in vivo", "conditions": "two doses"}, "[10]": {"system": "Streptococcus pneumoniae Park I", "assay": "Experimental infection in mice", "format": "in vivo"}, "[11]": {"system": "Staphylococcus aureus 3055", "assay": "Experimental infection in mice", "format": "in vivo", "conditions": "two doses"}, "Mycoplasma gallisepticum [12]": {"system": "Mycoplasma gallisepticum", "assay": "Treatment of induced Mycoplasma gallisepticum infection in chicks with DMT base", "format": "in vivo", "conditions": "infected control 304", "experimental": "(§2) Activity against Mycoplasma species is an especially useful aspect of the DMT compounds. Tables 10 and 11 summarize experiments using DMT and DMT tartrate for the treatment of induced Mycoplasma gallisepticum infections in chickens. The compounds were administered in the drinking water (at 1 and 2 grams per gallon for 1 to 3 days) or by injection at 15 or 30 mg/kg of body weight."}, "[13]": {"assay": "Acute toxicity of DMT in mice", "conditions": "mouse, in vivo", "text": "In these studies, 4- to 5-week-old Harlan ICR mice were used. […]"}, "[14]": {"system": "Streptomyces fradiae E2724.1", "assay": "Antibiotic sensitivity of S. fradiae E2724.1 (sensitivity discs on seeded agar plates)", "format": "cell-based", "text": "(§3) ^a Determined by using sensitivity discs padded onto seededagar"}, "[15]": {"system": "Streptomyces fradiae NRRL 12170", "assay": "Antibiotic sensitivity of S. fradiae NRRL 12170 (sensitivity discs on seeded agar plates)", "format": "cell-based", "text": "as §3"}, "Mycoplasma gallisepticum [16]": {"system": "Mycoplasma gallisepticum", "assay": "Treatment of induced Mycoplasma gallisepticum infection in chicks with DMT tartrate", "format": "in vivo", "conditions": "infected control 231", "experimental": "as §2"}, "[17]": {"conditions": "1.0 g/gal, 1-3 days, drinking water"}, "[18]": {"conditions": "2.0 g/gal, 1-3 days, drinking water"}}, "note": "Counter-ions that a name gives are not always drawn. Like-named read-outs stand apart in the source and are kept apart here."}
{"smiles": "CCC1OC(=O)CC(O)C(C)C(OC2OC(C)C(OC3CC(C)(O)C(O)C(C)O3)C(N(C)C)C2O)C(CC=O)CC(C)C(=O)C=CC(C)=CC1CO", "note": "(stereo not shown) [DMT, 23-demycinosyltylosin]", "values": [{"measurement": "pKa", "setting": "physchem", "result": "~7.25"}, {"measurement": "solubility in most polar organic solvents", "setting": "[1]", "result": "soluble"}, {"measurement": "solubility in water", "setting": "[1]", "result": "soluble"}, {"measurement": "inhibition of growth of pathogenic organisms", "setting": "[2]", "result": "especially active against gram-positive microorganisms and Mycoplasma species"}, {"measurement": "MIC", "setting": "Mycoplasma gallisepticum [3]", "result": 0.097, "unit": "µg/mL"}, {"measurement": "MIC", "setting": "Mycoplasma hyopneumoniae", "result": 0.195, "unit": "µg/mL"}, {"measurement": "MIC", "setting": "Mycoplasma hyorhinis", "result": 0.78, "unit": "µg/mL"}, {"measurement": "MIC", "setting": "Pasteurella hemolytica", "result": 12.5, "unit": "µg/mL"}, {"measurement": "MIC", "setting": "Pasteurella multocida", "result": 3.12, "unit": "µg/mL"}, {"measurement": "MIC", "setting": "[4]", "result": 0.25, "unit": "µg/mL"}, {"measurement": "MIC", "setting": "[5]", "result": 1, "unit": "µg/mL"}, {"measurement": "MIC", "setting": "[6]", "result": 0.13, "unit": "µg/mL"}, {"measurement": "MIC", "setting": "[7]", "result": 0.25, "unit": "µg/mL"}, {"measurement": "MIC", "setting": "[8]", "result": 0.5, "unit": "µg/mL"}, {"measurement": "ED50", "setting": "[9]; Streptococcus pyogenes, C203, po, oral, challenge 11.3 × LD50, read-out: ED50", "result": 218, "unit": "mg/kg"}, {"measurement": "ED50", "setting": "[9]; Streptococcus pyogenes, C203, sc, subcutaneous, challenge 13 × LD50, read-out: ED50", "result": 2.2, "unit": "mg/kg"}, {"measurement": "ED50", "setting": "[10]; po, two doses, challenge 2.7 × LD50", "result": 66, "unit": "mg/kg"}, {"measurement": "ED50", "setting": "[10]; sc, subcutaneous, two doses, challenge 3 × LD50", "result": 15.7, "unit": "mg/kg"}, {"measurement": "ED50", "setting": "[11]; Staphylococcus aureus, 3055, sc, subcutaneous, challenge 21 × LD50", "result": 2.7, "unit": "mg/kg"}, {"measurement": "ED50", "setting": "[11]; Staphylococcus aureus, 3055, oral, challenge 26 × LD50", "result": 64, "unit": "mg/kg"}, {"measurement": "Avg. Wt.", "setting": "Mycoplasma gallisepticum [12]; 15 mg/kg, injection", "result": 453, "unit": "g"}, {"measurement": "Avg. Wt.", "setting": "Mycoplasma gallisepticum [12]; [17]", "result": 392, "unit": "g"}, {"measurement": "Avg. Wt.", "setting": "Mycoplasma gallisepticum [12]; [18]", "result": 397, "unit": "g"}, {"measurement": "LD50", "setting": "[13]; ip, females", "result": 325, "unit": "mg/kg"}, {"measurement": "LD50", "setting": "[13]; ip, males", "result": 721, "unit": "mg/kg"}, {"measurement": "LD50", "setting": "[13]; iv, females", "result": 186, "unit": "mg/kg"}, {"measurement": "LD50", "setting": "[13]; iv, males", "result": 100, "unit": "mg/kg"}, {"measurement": "LD50", "setting": "[13]; po, females", "result": "> 5000", "unit": "mg/kg"}, {"measurement": "LD50", "setting": "[13]; sc, females", "result": 5450, "unit": "mg/kg"}]}
{"smiles": "O=C(N[C@H](CO)[C@H](O)c1ccc([N+](=O)[O-])cc1)C(Cl)Cl", "note": "[Chloramphenicol]", "values": [{"measurement": "Antibiotic Sensitivity", "setting": "[14]; disc conc. 30 μg", "result": "+"}, {"measurement": "Antibiotic Sensitivity", "setting": "[15]; disc conc. 30 μg", "result": "+"}]}
{"smiles": "CN[C@H](CC(C)C)C(=O)N[C@H]1C(=O)N[C@@H](CC(N)=O)C(=O)N[C@H]2C(=O)N[C@H]3C(=O)N[C@H](C(=O)N[C@H](C(=O)O)c4cc(O)cc(O)c4-c4cc3ccc4O)[C@H](O)c3ccc(c(Cl)c3)Oc3cc2cc(c3O[C@@H]2O[C@H](CO)[C@@H](O)[C@H](O)[C@H]2O[C@H]2C[C@](C)(N)[C@H](O)[C@H](C)O2)Oc2ccc(cc2Cl)[C@H]1O", "note": "[Vancomycin]", "values": [{"measurement": "Antibiotic Sensitivity", "setting": "[14]; disc conc. 30 μg", "result": "+"}, {"measurement": "Antibiotic Sensitivity", "setting": "[15]; disc conc. 30 μg", "result": "+"}]}
{"smiles": "O=C(Cc1cccs1)N[C@@H]1C(=O)N2C(C(=O)[O-])=C(C[n+]3ccccc3)CS[C@H]12", "note": "[Cephaloridine]", "values": [{"measurement": "Antibiotic Sensitivity", "setting": "[14]; disc conc. 30 μg", "result": "+"}, {"measurement": "Antibiotic Sensitivity", "setting": "[15]; disc conc. 30 μg", "result": "+"}]}
{"smiles": "CCC1OC(=O)CC(O)C(C)C(OC2OC(C)C(OC3CC(C)(O)C(O)C(C)O3)C(N(C)C)C2O)C(CC=O)CC(C)C(=O)C=CC(C)=CC1CO", "note": "(stereo not shown) [DMT Tartrate]", "values": [{"measurement": "ED50", "setting": "[9]; oral, challenge 11.3 × LD50", "result": 172, "unit": "mg/kg × 2"}, {"measurement": "ED50", "setting": "[9]; subcutaneous, challenge 13 × LD50", "result": 2.3, "unit": "mg/kg × 2"}, {"measurement": "ED50", "setting": "[10]; po", "result": 100, "unit": "mg/kg"}, {"measurement": "ED50", "setting": "[10]; sc", "result": "≤ 9.9", "unit": "mg/kg"}, {"measurement": "Avg. Wt.", "setting": "Mycoplasma gallisepticum [16]; 30 mg/kg, injection", "result": 330, "unit": "g"}, {"measurement": "Avg. Wt.", "setting": "Mycoplasma gallisepticum [16]; [17]", "result": 354, "unit": "g"}, {"measurement": "Avg. Wt.", "setting": "Mycoplasma gallisepticum [16]; [18]", "result": 458, "unit": "g"}]}
{"smiles": "CCC[C@@H]1C[C@@H](C(=O)N[C@@H]([C@H]2O[C@H](SC)[C@H](O)[C@@H](O)[C@H]2O)[C@@H](C)O)N(C)C1", "note": "[Lincomycin]", "values": [{"measurement": "Antibiotic Sensitivity", "setting": "[14]; disc conc. 2 μg", "result": "-"}, {"measurement": "Antibiotic Sensitivity", "setting": "[15]; disc conc. 2 μg", "result": "-"}]}
{"smiles": "CN(C)[C@@H]1C(O)=C(C(N)=O)C(=O)[C@@]2(O)C(O)=C3C(=O)c4c(O)cccc4[C@@](C)(O)[C@H]3C[C@@H]12", "note": "[Tetracycline]", "values": [{"measurement": "Antibiotic Sensitivity", "setting": "[14]; disc conc. 30 μg", "result": "+"}, {"measurement": "Antibiotic Sensitivity", "setting": "[15]; disc conc. 30 μg", "result": "+"}]}
{"smiles": "[H]/N=C(/N)N[C@H]1[C@H](O)[C@@H](O)[C@H](O[C@@H]2O[C@@H](C)[C@](O)(C=O)[C@H]2O[C@@H]2O[C@@H](CO)[C@H](O)[C@@H](O)[C@@H]2NC)[C@@H](N/C(N)=N\\[H])[C@@H]1O", "note": "[Streptomycin]", "values": [{"measurement": "Antibiotic Sensitivity", "setting": "[14]; disc conc. 10 μg", "result": "+"}, {"measurement": "Antibiotic Sensitivity", "setting": "[15]; disc conc. 10 μg", "result": "+"}]}
{"smiles": "CCC1OC(=O)CC(O)C(C)C(OC2OC(C)C(OC3CC(C)(O)C(O)C(C)O3)C(N(C)C)C2O)C(CCO)CC(C)C(=O)C=CC(C)=CC1CO", "note": "(stereo not shown) [dihydro-DMT, 20-dihydro-23-demycinosyltylosin]", "values": [{"measurement": "inhibition of growth of pathogenic organisms", "setting": "[2]", "result": "especially active against gram-positive microorganisms and Mycoplasma species"}]}
